# Assays:
# [1] = tested on: SAg: Venular endothelial cells, peripheral blood mononuclear cells (TCR ligands); test: BioMAP SAg system; type: cell-based, human
# Description: (§1) Anti-inflammatory phenotypic profiling was conducted across 12 human primary cell-based systems as part of DiscoverX's BioMAP Diversity Plus program. These systems are designed to model complex human tissue and disease biology of the vasculature, skin, lung, and inflammatory tissues. Quantitative measurements of biomarker activities across this broad panel were used to assess each biochemical's anti-inflammatory activity at four concentrations ([…] and 2.2, 6.7 and 20 μM). […] Protein-based biomarkers from activated cell systems were measured and compared with controls. Biomarker activities were annotated when 2 or more consecutive concentrations change in the same directions relative to vehicle controls, were outside of the significance envelope and had at least one concentration with an effect size>20% (log 10 ratio)>0.1.
# In this system, human primary peripheral blood mononuclear cells and human umbilical vein endothelial cells were stimulated with T-cell receptor ligands and incubated with the test agent, drug control, or vehicle control for 24 hours. A negative, non-stimulated system was also included. […] This antiproliferative activity was lost at higher concentrations (20 μM). In this system, T cell proliferation is considered a critical event driving an inflammatory response.
# (§2) The Diversity PLUS panel allows test agent characterization in an unbiased way across a broad set of systems modeling various human disease states. These systems are designed to model complex human tissue and disease biology of the vasculature, skin, lung, and inflammatory tissues. Quantitative measurements of 148 biomarker activities across this broad panel, along with comparative analysis of biological activities from known bioactive agents, were used to predict and compare the efficacy and function of each selected compound at selected concentrations (6.7 and/or 20 μM). […]
# (§3) Each test agent generates a signature BioMAP profile that is created from the changes in protein biomarker readouts within individual system environments. Biomarker readouts (7-17 per system) are selected for therapeutic and biological relevance, are predictive for disease outcomes or specific drug effects and are validated using agents with known mechanism of action (MoA). Each readout is measured quantitatively by immune-based methods that detect protein (e.g., ELISA) or functional assays that measure proliferation and viability. BioMAP readouts are diverse and include cell surface receptors, cytokines, chemokines, matrix molecules and enzymes. In total, the Diversity PLUS panel contains 148 biomarker readouts that capture biological changes that occur within the physiological context of the particular BioMAP system. […]
# [2] = white powder; cited from earlier work
# [3] = tested on: MyoF: Lung fibroblasts (TGFβ, TNFα); test: BioMAP MyoF system; type: cell-based, human; details: at the compound's active concentration
# Excerpt: (§4) The Diversity PLUS panel allows test agent characterization in an unbiased way across a broad set of systems modeling various human disease states. These systems are designed to model complex human tissue and disease biology of the vasculature, skin, lung, and inflammatory tissues. Quantitative measurements of 148 biomarker activities across this broad panel, along with comparative analysis of biological activities from known bioactive agents, were used to predict and compare the efficacy and function of each selected compound at selected concentrations (6.7 and/or 20 μM).
# (§5) BioMAP systems are constructed with one or more primary cell types from healthy human donors, with stimuli (such as cytokines or growth factors) added to capture relevant signaling networks that naturally occur in human tissue or pathological conditions. Vascular biology is modeled in both a Th1 (3C system) and a Th2 (4H system) inflammatory environment, as well as in a Th1 inflammatory state specific to arterial smooth muscle cells (CASM3C system). Additional systems recapitulate aspects of the systemic immune response including monocyte-driven Th1 inflammation (LPS system) or T cell stimulation (SAg system), chronic Th1 inflammation driven by macrophage activation (lMphg system) and the T cell-dependent activation of B cells that occurs in germinal centers (BT system). The BE3C system (Th1) and the BF4T system (Th2) represent airway inflammation of the lung, while the MyoF system models myofibroblast-lung tissue remodeling. Lastly, skin biology is addressed in the KF3CT system modeling Th1 cutaneous inflammation and the HDF3CGF system modeling wound healing.
# as §3
# (§6) Activated BioMAP systems were incubated with each compound for 24 to 72 hours. Protein-based biomarkers from activated cell systems were measured and compared with non-treated control systems.
# [4] = tested on: KF3CT: Keratinocytes, dermal fibroblasts; test: BioMAP KF3CT system; type: cell-based, human; details: at the compound's active concentration
# Excerpt: as §2
# as §3, with “enzymes.” for “enzymes. In total, the Diversity PLUS panel contains 148 biomarker readouts that capture biological changes that occur within the physiological context of the particular BioMAP system.”
# [5] = tested on: human primary cell-based systems; test: BioMAP Diversity PLUS panel, phenotypic profiling; details: tested at 6.7 and/or 20 μM; 24 to 72 hours
# Description: as §1, with “controls.” for “controls. Biomarker activities were annotated when 2 or more consecutive concentrations change in the same directions relative to vehicle controls, were outside of the significance envelope and had at least one concentration with an effect size>20% (log 10 ratio)>0.1.”
# as §4, §5
# (§7) Each test agent generates a signature BioMAP profile that is created from the changes in protein biomarker readouts within individual system environments. Biomarker readouts (7-17 per system) are selected for therapeutic and biological relevance, are predictive for disease outcomes or specific drug effects and are validated using agents with known mechanism of action (MoA). Each readout is measured quantitatively by immune-based methods that detect protein (e.g., ELISA) or functional assays that measure proliferation and viability. BioMAP readouts are diverse and include cell surface receptors, cytokines, chemokines, matrix molecules and enzymes. In total, the Diversity PLUS panel contains 148 biomarker readouts that capture biological changes that occur within the physiological context of the particular BioMAP system.
# as §6
# [6] = tested on: BE3C: Bronchial epithelial cells (IL-1β, IFNγ, TNFα); test: BioMAP BE3C system; type: cell-based, human; details: at the compound's active concentration
# Excerpt: The Diversity PLUS panel allows test agent characterization in an unbiased way across a broad set of systems modeling various human disease states. These systems are designed to model complex human tissue and disease biology of the vasculature, skin, lung, and inflammatory tissues.
# as §5
# as §7, with “enzymes.” for “enzymes. In total, the Diversity PLUS panel contains 148 biomarker readouts that capture biological changes that occur within the physiological context of the particular BioMAP system.”
# as §6
# [7] = tested on: BT: Peripheral blood mononuclear cells, B cells (α-IgM, TCR ligands); test: BioMAP BT system; type: cell-based, human; details: BT system; at the compound's active concentration
# Description: as §1
# In the first system, human primary peripheral blood mononuclear cells and venular endothelial cells were stimulated with lipopolysaccharide (LPS) and incubated with the test agent, drug control, or vehicle control for 24 hours. In the second system, peripheral blood mononuclear cells and B cells were stimulated with α-IgM and T cell receptor ligands and incubated with the test agent, drug control, or vehicle control for 24 hours. In both systems, a negative, non-stimulated system was also included.
# as §4, §5, §3
# [8] = tested on: HDF3CGF: Dermal fibroblasts; test: BioMAP HDF3CGF system; type: cell-based, human; details: at the compound's active concentration
# Excerpt: as §4, §5
# as §7, with “system. Specific BioMAP activities have been correlated to in vivo biology, and multiparameter BioMAP profiles have been used to distinguish compounds based on MoA and target selectivity across diverse physiological systems.” for “system.”
# as §6
smiles,measurement,setting,value
N[C@@H](CC(O)C(=O)O)C(=O)O (some centres unmarked) [4-hydroxyglutamate],T cell antiproliferative activity,"[1]; higher concentrations (20 μM), 24 hours",lost
same,Stability of the pure powder,[2],stable at room temperature
"Nc1ncnc2c1ncn2[C@@H]1O[C@H](CSCC[C@H](N)C(=O)O)[C@@H](O)[C@H]1O [S-adenosylhomocysteine (SAH), S-adenosylhomocysteine]","T cell proliferation, log10 reduction vs nontreated controls","[1]; SAg system, at the compound's active concentration",−0.21 log10
same,"Alpha-SM actin, log10 reduction vs nontreated controls",[3],−0.18 log10
same,"Collagen I, log10 reduction vs nontreated controls",[3],−0.15 log10
same,"Collagen III, log10 reduction vs nontreated controls",[3],−0.27 log10
same,"VCAM-1, log10 reduction vs nontreated controls",[3],−0.12 log10
same,"MMP-9, log10 reduction vs nontreated controls",[4],−0.10 log10
same,"PAI-1, log10 reduction vs nontreated controls",[4],−0.28 log10
same,Active concentrations,[5],20 µM
same,"CXCL11, log10 reduction vs nontreated controls",[6],−0.13 log10
same,"HLA-DR, log10 reduction vs nontreated controls",[6],−0.13 log10
same,"IL-8, log10 reduction vs nontreated controls",[6],−0.13 log10
same,"MMP-9, log10 reduction vs nontreated controls",[6],−0.24 log10
same,"Secreted IgG, log10 reduction vs nontreated controls",[7],−0.29 log10
same,"CXCL10, log10 reduction vs nontreated controls",[8],−0.19 log10
same,"CXCL11, log10 reduction vs nontreated controls",[8],−0.25 log10
same,"Collagen III, log10 reduction vs nontreated controls",[8],−0.21 log10
same,"Fibroblast proliferation, log10 reduction vs nontreated controls",[8],−1.10 log10
same,"M-CSF, log10 reduction vs nontreated controls",[8],−0.19 log10
same,"MCP-1, log10 reduction vs nontreated controls",[8],−0.14 log10
same,"TIMP-1, log10 reduction vs nontreated controls",[8],−0.14 log10
same,"VCAM-1, log10 reduction vs nontreated controls",[8],−0.17 log10

# — patent US12427179B2, “Compositions and methods for diagnosis and treatment of neurodegenerative diseases” (EPITRACKER, INC., priority 2019, dated 2025)
